In patent US20230398133A1, “USE OF B-CELL LYMPHOMA 2 (BCL-2) INHIBITOR AND PHARMACEUTICAL COMPOSITION FOR TREATING CELLULAR SENESCENCE-RELATED SKIN DISEASES” (Xeon Biopharmaceutical Limited, priority 2020, published 2023):

What was measured:
[1] = test system: imiquimod-induced psoriasis mouse model; assay: Subcutaneous injection of ABT-737 injection in imiquimod-induced psoriasis mouse model (Example 5); assay type: in vivo; conditions: subcutaneous injection 25 mg/kg/day
Experimental: Effects of subcutaneous injection of 2.5 mg/ml BCL-2 inhibitor (ABT-737 injection) on imiquimod-induced psoriasis mouse model were studied.
16 healthy female Balb/c mice at the age of 8 weeks with a body weight of 20±2 g were taken, and depilated by 2×2 cm^2 on the back of the torso. After 24 h of depilation, it was confirmed that there was no abnormal change in depilated areas, and the mice were randomly divided into 4 groups, including: (1) a normal control group (3 mice): no special operations were conducted; (2) a psoriasis mouse model group (3 mice): psoriasis model was induced by external application of imiquimod; (3) a group of subcutaneous injection of ABT-737 injection (Example 1) to treat psoriasis mouse model (hereinafter referred to as ABT-737 subcutaneous injection group, 5 mice): psoriasis model was induced by external application of imiquimod, and subcutaneous injection of 25 mg/kg/day ABT-737 was conducted for treatment (that is, 200 μl of 2.5 mg/ml ABT-737 injection was given to the above-mentioned mice); (4) a group of subcutaneous injection of blank injection (Example 3) to treat psoriasis mouse model (hereinafter referred to as blank injection for subcutaneous injection group, 5 mice): psoriasis model was induced by external application of imiquimod, and subcutaneous injection of blank injection was conducted in an equal volume with the ABT-737 subcutaneous injection group.
Except for the normal control group, the above-mentioned mice are all prepared with imiquimod-induced psoriasis models: 62.5 mg of 5% imiquimod (Sichuan Med Shine Pharmaceutical Co., Ltd.) was applied evenly with a cotton swab on the depilated areas on the back of the torso of the mouse, by once a day for 7 consecutive days with an interval of 24 h. After the modeling, the skin of the mouse back modeling in the psoriasis model group was taken for tissue paraffin embedding and routine section for HE staining observation. Compared with the normal control group, the model is established based on histological changes such as parakeratosis and spinous layer hypertrophy.
Immunohistochemical staining of p16, p21 and CD4 was conducted at the same time. The ratio of p16 and p21 positive cells of skin cellular senescence-related molecules between each group was compared under a multispectral microscope, and the infiltration degree of CD4^+ T cells in the skin between each group was compared (FIG. 3). • (3) In addition, the skin specimens of the back modeling sites of the torso of a total of 10 mice in the ABT-737 subcutaneous injection group and the blank injection for subcutaneous injection group were taken, added to an RNA protection solution, cut and ground to prepare a single cell suspension. […]

[2] = test system: imiquimod-induced psoriasis mouse model; assay: External application of ABT-737 gel and intraperitoneal injection of ABT-737 injection in imiquimod-induced psoriasis mouse model (Example 6); assay type: in vivo; conditions: intraperitoneal injection 25 mg/kg/day
Experimental: Effects of external application of BCL-2 inhibitor ABT-737 gel (Example 2) and intraperitoneal injection of 2.5 mg/ml BCL-2 inhibitor ABT-737 injection (Example 1) on imiquimod-induced psoriasis mouse model was studied.
19 healthy female Balb/c mice at the age of 8 weeks with a body weight of 20±2 g were taken, and depilated by 2×2 cm^2 on the back of the torso. After 24 h of depilation, it was confirmed that there was no abnormal change in depilated areas, and the mice were randomly divided into 5 groups, including: (1) a psoriasis mouse model group (3 mice): psoriasis model was induced by external application of imiquimod; (2) a group external application of ABT-737 gel (Example 2) for treating psoriasis mouse model (hereinafter referred to as ABT-737 gel treatment group, 5 mice): psoriasis model was induced by external application of imiquimod, and each mouse was treated with ABT-737 gel 0.5 g/day for external application; (3) a group of external application of blank gel (Example 4) to treat the psoriasis mouse model (hereinafter referred to as the blank gel control group, 5 mice): the psoriasis model was induced by external application of imiquimod, and each mouse was treated with blank gel the same amount as the ABT-737 treatment group by external application; (4) a group of intraperitoneal injection of BCL-2 inhibitor ABT-737 injection (Example 1; hereinafter referred to as ABT-737 intraperitoneal injection treatment group, 3 mice): psoriasis model was induced by external application of imiquimod, and each mouse was treated by intraperitoneal injection of 25 mg/kg/day of ABT-737 (that is, 200 μl of 2.5 mg/ml ABT-737 injection was given to the above-mentioned mice); (5) a group of blank injection for intraperitoneal injection (Example 3; hereinafter referred to as blank injection for intraperitoneal injection group, 3 mice): psoriasis model was induced by external application of imiquimod, and each mouse was treated by intraperitoneal injection of 200 μl of blank injection. […]

[3] = vs blank injection for subcutaneous injection group, FIG. 3

SMILES: CN(C)CC[C@H](CSc1ccccc1)Nc1ccc(S(=O)(=O)NC(=O)c2ccc(N3CCN(Cc4ccccc4-c4ccc(Cl)cc4)CC3)cc2)cc1[N+](=O)[O-] [ABT-737]
- dermal inflammatory cells (HE staining) ([1]; FIG. 2): significantly reduced
- downward extension of epidermal protrusions on the back skin lesions (HE staining) ([1]; FIG. 2): significantly reduced
- spinous cell layer (HE staining) ([1]; FIG. 2): thinned
- systemic damage ([1]; conclusion from spleen and DLN T cell subsets): without any systemic damage
- appearance of skin at the modeling site: skin swelling, skin thickening and scales ([1]; vs blank injection for subcutaneous injection group and psoriasis model group, FIG. 1): significant improvement
- proportion of CD4+ cells infiltrated by dermal inflammation (immunohistochemistry) [1, 3]: significantly reduced
- proportion of senescent cells staining positive in p16 and p21 in paraffin sections of skin lesions (immunohistochemistry) [1, 3]: significantly reduced
- mRNA expression levels of genes corresponding to P16, P21, BCL-2, INF-7 and IL17A in skin (real-time quantitative PCR) ([1]; vs blank injection for subcutaneous injection group, FIG. 4): decrease significantly
- improvement of the skin lesions of the mouse model (skin appearance) ([2]; FIG. 6): better than the psoriasis model group, the blank gel control group and the blank injection for intraperitoneal injection group, but is slightly inferior to the ABT-737 gel treatment group
- improvement of the skin lesions of the mouse model (HE pathological sections) ([2]; FIG. 7): better than the psoriasis model group, the blank gel control group and the blank injection for intraperitoneal injection group, but is slightly inferior to the ABT-737 gel treatment group
- reduction of p16, p21, CD4 and BCL2 positive cells (immunohistochemistry) ([2]; FIG. 8): better than the blank gel control group and the blank injection for intraperitoneal injection group, but is slightly inferior to the ABT-737 gel treatment group
